Columns and labels:
Type in all cases: in vivo
corn (Zea mays) = test: Test A pre-/postemergence plant response; settings: for Corn plant response rating: visual injury, 0 to 100 scale (0 no effect, 100 complete control), approx. ten days
From the text: (§1) Seeds of barnyardgrass (Echinochloa crus-galli), large crabgrass (Digitaria sanguinalis), giant foxtail (Setaria faberii), morningglory (Ipomoea spp.), pigweed (Amaranthus retroflexus), velvetleaf (Abutilon theophrasti), wheat (Triticum aestivum) and corn (Zea mays) were planted into a blend of loam soil and sand and treated preemergence with a directed soil spray using test chemicals formulated in a non-phytotoxic solvent mixture which included a surfactant. At the same time these species were also treated with postemergence applications of test compounds formulated in the same manner.
(§2) Plants ranged in height from two to ten cm and were in the one- to two-leaf stage for the postemergence treatment. Treated plants and untreated controls were maintained in a greenhouse for approximately ten days, after which time all treated plants were compared to untreated controls and visually evaluated for injury. Plant response ratings, summarized in Table A, are based on a 0 to 100 scale where 0 is no effect and 100 is complete control. A dash (-) response means no test result.

[1] = system: velvetleaf (Abutilon theophrasti); test: Test A pre-/postemergence plant response; settings: for Velvetleaf plant response rating: visual injury, 0 to 100 scale (0 no effect, 100 complete control), approx. ten days
From the text: as §1, §2

[2] = system: wheat (Triticum aestivum); test: Test A pre-/postemergence plant response; settings: for Wheat plant response rating: visual injury, 0 to 100 scale (0 no effect, 100 complete control), approx. ten days
From the text: as §1, §2

[3] = system: morningglory (Ipomoea spp.); test: Test A pre-/postemergence plant response; settings: for Morningglory plant response rating: visual injury, 0 to 100 scale (0 no effect, 100 complete control), approx. ten days
From the text: as §1, §2

[4] = system: giant foxtail (Setaria faberii); test: Test A pre-/postemergence plant response; settings: for Foxtail, Giant plant response rating: visual injury, 0 to 100 scale (0 no effect, 100 complete control), approx. ten days
From the text: as §1, §2

[5] = system: pigweed (Amaranthus retroflexus); test: Test A pre-/postemergence plant response; settings: for Pigweed plant response rating: visual injury, 0 to 100 scale (0 no effect, 100 complete control), approx. ten days
From the text: as §1, §2

[6] = system: large crabgrass (Digitaria sanguinalis); test: Test A pre-/postemergence plant response; settings: for Crabgrass, Large plant response rating: visual injury, 0 to 100 scale (0 no effect, 100 complete control), approx. ten days
From the text: as §1, §2

[7] = system: barnyardgrass (Echinochloa crus-galli); test: Test A pre-/postemergence plant response; settings: for Barnyardgrass plant response rating: visual injury, 0 to 100 scale (0 no effect, 100 complete control), approx. ten days
From the text: as §1, §2

rice (Oryza sativa) = test: Test B flooded paddy test; settings: for Plant response rating, Flood, Rice: 250 g ai/ha, flooded paddy test, visual rating on 0 to 100 scale (0 no effect, 100 complete control) after 13 to 15 days; for Plant response rating, Rice: Flood (flooded paddy test), 13 to 15 days
Procedure, shortened: (§3)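 2-leaf seedlings; pots flooded 3 cm over soil at treatment; cpd dosed into floodwater, depth kept constant. Greenhouse 13–15 d. Visual rating vs untreated controls, 0 = no effect, 100 = complete control.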

[8] = system: umbrella sedge (Cyperus difformis); test: Test B flooded paddy test; settings: for Plant response rating, Flood, Sedge, Umbrella: 250 g ai/ha, flooded paddy test, visual rating on 0 to 100 scale (0 no effect, 100 complete control) after 13 to 15 days; for Plant response rating, Sedge, Umbrella: Flood (flooded paddy test), 13 to 15 days
Procedure, shortened: as §3

[9] = system: ducksalad (Heteranthera limosa); test: Test B flooded paddy test; settings: for Plant response rating, Flood, Ducksalad: 250 g ai/ha, flooded paddy test, visual rating on 0 to 100 scale (0 no effect, 100 complete control) after 13 to 15 days; for Plant response rating, Ducksalad: Flood (flooded paddy test), 13 to 15 days
Procedure, shortened: as §3

[10] = system: barnyardgrass (Echinochloa crus-galli); test: Test B flooded paddy test; settings: for Plant response rating, Flood, Barnyardgrass: 250 g ai/ha, flooded paddy test, visual rating on 0 to 100 scale (0 no effect, 100 complete control) after 13 to 15 days; for Plant response rating, Barnyardgrass: Flood (flooded paddy test), 13 to 15 days
Procedure, shortened: as §3

[11] = Postemergence, 125 g ai/ha, 0 to 100 scale where 0 is no effect and 100 is complete control
[12] = Preemergence, 125 g ai/ha, 0 to 100 scale, 0 = no effect, 100 = complete control
[13] = Preemergence, 500 g ai/ha, 0 to 100 scale, 0 = no effect, 100 = complete control
[14] = 62 g ai/ha, scale of 0 to 100 where 0 is no effect and 100 is complete control
[15] = 125 g ai/ha, scale 0 to 100, 0 is no effect, 100 is complete control
[16] = Flood, 31 g ai/ha, scale 0 to 100 (0 no effect, 100 complete control)

SMILES: COc1cccc(-c2ncc(C(=O)C3=C(O)CCCC3=O)c(=O)n2C2CCCCC2)c1 [Compound 196]
- Plant response rating, Corn (corn (Zea mays); [11]): 10
- Corn plant response rating (corn (Zea mays); Postemergence, 500 g ai/ha): 40
- Plant response rating, Corn (corn (Zea mays); [12]): 0
- Plant response rating, Corn (corn (Zea mays); [13]): 20
- Plant response rating, Velvetleaf [1, 11]: 100
- Velvetleaf plant response rating ([1]; Postemergence, 500 g ai/ha): 100
- Plant response rating, Velvetleaf [1, 12]: 0
- Plant response rating, Velvetleaf [1, 13]: 50
- Plant response rating, Wheat [2, 11]: 0
- Wheat plant response rating ([2]; Postemergence, 500 g ai/ha): 30
- Plant response rating, Wheat [2, 12]: 0
- Plant response rating, Wheat [2, 13]: 20
- Plant response rating, Morningglory [3, 11]: 100
- Morningglory plant response rating ([3]; Postemergence, 500 g ai/ha): 100
- Plant response rating, Morningglory [3, 12]: 0
- Plant response rating, Morningglory [3, 13]: 40
- Plant response rating, Foxtail, Giant [4, 11]: 70
- Foxtail, Giant plant response rating ([4]; Postemergence, 500 g ai/ha): 100
- Plant response rating, Foxtail, Giant [4, 12]: 0
- Plant response rating, Foxtail, Giant [4, 13]: 80
- Plant response rating, Pigweed [5, 11]: 80
- Pigweed plant response rating ([5]; Postemergence, 500 g ai/ha): 100
- Plant response rating, Pigweed [5, 12]: 0
- Plant response rating, Pigweed [5, 13]: 30
- Plant response rating, Crabgrass, Large [6, 11]: 50
- Crabgrass, Large plant response rating ([6]; Postemergence, 500 g ai/ha): 90
- Plant response rating, Crabgrass, Large [6, 12]: 0
- Plant response rating, Crabgrass, Large [6, 13]: 70
- Plant response rating, Barnyardgrass [7, 11]: 80
- Barnyardgrass plant response rating ([7]; Postemergence, 500 g ai/ha): 90
- Plant response rating, Barnyardgrass [7, 12]: 0
- Plant response rating, Barnyardgrass [7, 13]: 50
- Plant response rating, Flood, Rice (rice (Oryza sativa)): 65
- Plant response rating, Rice (rice (Oryza sativa); [14]): 0
- Plant response rating, Rice (rice (Oryza sativa); [15]): 40
- Rice plant response rating (rice (Oryza sativa); [16]): 0
- Plant response rating, Flood, Sedge, Umbrella [8]: 80
- Plant response rating, Sedge, Umbrella [8, 14]: 30
- Plant response rating, Sedge, Umbrella [8, 15]: 75
- Sedge, Umbrella plant response rating [8, 16]: 20
- Plant response rating, Flood, Ducksalad [9]: 95
- Plant response rating, Ducksalad [9, 14]: 60
- Plant response rating, Ducksalad [9, 15]: 95
- Ducksalad plant response rating [9, 16]: 40
- Plant response rating, Flood, Barnyardgrass [10]: 30
- Plant response rating, Barnyardgrass [10, 14]: 0
- Plant response rating, Barnyardgrass [10, 15]: 20
- Barnyardgrass plant response rating [10, 16]: 0

SMILES: O=C1CCCC(O)=C1C(=O)c1cnc(-c2ccco2)n(C2CCCCC2)c1=O [Compound 188]
- Plant response rating, Corn (corn (Zea mays); [11]): 0
- Corn plant response rating (corn (Zea mays); Postemergence, 500 g ai/ha): 10
- Plant response rating, Corn (corn (Zea mays); [12]): 0
- Plant response rating, Corn (corn (Zea mays); [13]): 0
- Plant response rating, Velvetleaf [1, 11]: 100
- Velvetleaf plant response rating ([1]; Postemergence, 500 g ai/ha): 100
- Plant response rating, Velvetleaf [1, 12]: 70
- Plant response rating, Velvetleaf [1, 13]: 80
- Plant response rating, Wheat [2, 11]: 0
- Wheat plant response rating ([2]; Postemergence, 500 g ai/ha): 0
- Plant response rating, Wheat [2, 12]: 0
- Plant response rating, Wheat [2, 13]: 0
- Plant response rating, Morningglory [3, 11]: 90
- Morningglory plant response rating ([3]; Postemergence, 500 g ai/ha): 100
- Plant response rating, Morningglory [3, 12]: 70
- Plant response rating, Morningglory [3, 13]: 80
- Plant response rating, Foxtail, Giant [4, 11]: 40
- Foxtail, Giant plant response rating ([4]; Postemergence, 500 g ai/ha): 80
- Plant response rating, Foxtail, Giant [4, 12]: 10
- Plant response rating, Foxtail, Giant [4, 13]: 40
- Plant response rating, Pigweed [5, 11]: 90
- Pigweed plant response rating ([5]; Postemergence, 500 g ai/ha): 100
- Plant response rating, Pigweed [5, 12]: 60
- Plant response rating, Pigweed [5, 13]: 80
- Plant response rating, Crabgrass, Large [6, 11]: 80
- Crabgrass, Large plant response rating ([6]; Postemergence, 500 g ai/ha): 90
- Plant response rating, Crabgrass, Large [6, 12]: 30
- Plant response rating, Crabgrass, Large [6, 13]: 70
- Plant response rating, Barnyardgrass [7, 11]: 70
- Barnyardgrass plant response rating ([7]; Postemergence, 500 g ai/ha): 90
- Plant response rating, Barnyardgrass [7, 12]: 0
- Plant response rating, Barnyardgrass [7, 13]: 30
- Plant response rating, Flood, Rice (rice (Oryza sativa)): 15
- Plant response rating, Rice (rice (Oryza sativa); [14]): 0
- Plant response rating, Flood, Sedge, Umbrella [8]: 85
- Plant response rating, Sedge, Umbrella [8, 14]: 80
- Plant response rating, Flood, Ducksalad [9]: 85
- Plant response rating, Ducksalad [9, 14]: 70
- Plant response rating, Flood, Barnyardgrass [10]: 0
- Plant response rating, Barnyardgrass [10, 14]: 0

— patent publication US8952024B2, “Herbicidal pyrimidone derivatives” (E I du Pont de Nemours and Company, priority 2009, dated 2015)
